Reference: US10654831B2, “Antiproliferative pyrimidine-based compounds” (G1 Therapeutics, Inc., priority 2016, dated 2020)
pIC50: −log10 of the molar value.

Tests used:
Assay type in all cases: biochemical
CDK7/CycH/MAT1 = CDK7/CycH/MAT1 (Homo sapiens (Human), UniProt P50613); assay: CDK7/CycH/MAT1 kinase assay
CDK5/p35 = CDK5/p35 (Homo sapiens (Human), UniProt Q00535); assay: CDK5/p35 kinase assay
CDK4/CycD = CDK4/CycD (Homo sapiens (Human), UniProt P11802); assay: CDK4/CycD kinase assay (Caliper microfluidic); details: at Km for ATP
Method: (§1) Selected compounds disclosed herein were tested in CDK4/cyclinD1, CDK2/CycA and CDK2/cyclinE kinase assays by Nanosyn (Santa Clara, Calif.) to determine their inhibitory effect on these CDKs. The assays were performed using microfluidic kinase detection technology (Caliper Assay Platform). The compounds were tested in 12-point dose-response format in singlicate at Km for ATP. Phosphoacceptor substrate peptide concentration used was 1 μM for all assays and Staurosporine was used as the reference compound for all assays. Specifics of each assay are as described below:
CDK4/CyclinD1: Enzyme concentration: 1 nM; ATP concentration: 200 μM; Incubation time: 10 hr.

CDK2/CycA = CDK2/CycA (Homo sapiens (Human), UniProt P24941); assay: CDK2/CycA kinase assay (Caliper microfluidic); details: at Km for ATP
Method: as §1
CDK2/CyclinA: Enzyme concentration: 0.2 nM; ATP concentration: 50 μM; Incubation time: 3 hr.

CDK9/CycT = CDK9/CycT (Homo sapiens (Human), UniProt P50750); assay: CDK9/CycT kinase assay
CDK5/p25 = CDK5/p25 (Homo sapiens (Human), UniProt Q00535); assay: CDK5/p25 kinase assay
CDK6/CycD3 = CDK6/CycD3 (Homo sapiens (Human), UniProt Q00534); assay: CDK6/CycD3 kinase assay
Method: [The procedure below names another target; the source lists this target under the same test.] as §1, with “assays.” for “assays. Specifics of each assay are as described below:”

CDK2/CycE = CDK2/CycE (Homo sapiens (Human), UniProt P24941); assay: CDK2/CycE kinase assay (Caliper microfluidic); details: at Km for ATP
Method: as §1
CDK2/CyclinE: Enzyme concentration: 0.28 nM; ATP concentration: 100 μM; Incubation time: 1 hr.

Sequence of CDK6/CycD3 (Q00534 whole entry): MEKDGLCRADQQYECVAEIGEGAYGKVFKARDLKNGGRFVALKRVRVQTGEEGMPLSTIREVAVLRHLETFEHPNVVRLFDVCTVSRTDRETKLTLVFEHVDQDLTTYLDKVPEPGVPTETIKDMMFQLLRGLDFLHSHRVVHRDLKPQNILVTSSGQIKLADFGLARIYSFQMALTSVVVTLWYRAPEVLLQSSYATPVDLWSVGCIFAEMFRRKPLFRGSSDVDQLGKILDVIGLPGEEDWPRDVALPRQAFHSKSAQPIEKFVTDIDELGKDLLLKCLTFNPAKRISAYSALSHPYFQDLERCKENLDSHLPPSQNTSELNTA
Sequence of CDK6/CycD3 (P30281 whole entry partner): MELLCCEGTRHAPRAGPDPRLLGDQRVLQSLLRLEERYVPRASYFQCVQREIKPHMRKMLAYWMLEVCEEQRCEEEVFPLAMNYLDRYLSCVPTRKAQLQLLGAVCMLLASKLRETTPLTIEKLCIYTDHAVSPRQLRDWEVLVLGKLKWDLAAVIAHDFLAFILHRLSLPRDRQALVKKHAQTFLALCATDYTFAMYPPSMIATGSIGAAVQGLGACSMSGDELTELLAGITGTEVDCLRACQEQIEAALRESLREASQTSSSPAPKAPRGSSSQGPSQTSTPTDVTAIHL
Sequence of CDK7/CycH/MAT1 (P50613 whole entry): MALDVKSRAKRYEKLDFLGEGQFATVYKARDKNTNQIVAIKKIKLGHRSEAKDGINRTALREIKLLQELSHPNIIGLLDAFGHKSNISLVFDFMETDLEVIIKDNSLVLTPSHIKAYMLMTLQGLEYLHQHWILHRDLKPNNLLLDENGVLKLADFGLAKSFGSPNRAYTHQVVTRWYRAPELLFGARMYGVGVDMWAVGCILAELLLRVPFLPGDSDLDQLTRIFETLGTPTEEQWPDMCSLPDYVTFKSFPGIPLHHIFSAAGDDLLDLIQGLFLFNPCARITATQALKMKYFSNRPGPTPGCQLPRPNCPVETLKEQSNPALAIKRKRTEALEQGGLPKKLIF
Sequence of CDK7/CycH/MAT1 (P51946 whole entry partner): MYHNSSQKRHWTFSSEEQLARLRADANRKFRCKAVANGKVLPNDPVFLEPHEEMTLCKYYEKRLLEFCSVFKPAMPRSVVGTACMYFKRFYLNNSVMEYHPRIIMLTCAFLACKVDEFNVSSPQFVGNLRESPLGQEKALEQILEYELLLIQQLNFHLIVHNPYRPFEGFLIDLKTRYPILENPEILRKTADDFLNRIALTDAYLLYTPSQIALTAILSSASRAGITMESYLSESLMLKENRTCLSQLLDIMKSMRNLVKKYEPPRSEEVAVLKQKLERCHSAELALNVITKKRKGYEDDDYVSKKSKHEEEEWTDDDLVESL
Sequence of CDK7/CycH/MAT1 (P51948 whole entry partner): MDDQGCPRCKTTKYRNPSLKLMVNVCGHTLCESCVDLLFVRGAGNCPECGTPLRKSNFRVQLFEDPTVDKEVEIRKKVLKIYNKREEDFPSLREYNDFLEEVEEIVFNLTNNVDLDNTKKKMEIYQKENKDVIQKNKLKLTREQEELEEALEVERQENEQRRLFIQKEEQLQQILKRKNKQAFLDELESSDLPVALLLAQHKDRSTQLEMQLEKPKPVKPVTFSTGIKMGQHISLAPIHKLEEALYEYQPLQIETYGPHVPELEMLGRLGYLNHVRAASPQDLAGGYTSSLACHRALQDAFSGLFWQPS
Sequence of CDK4/CycD (P11802 whole entry): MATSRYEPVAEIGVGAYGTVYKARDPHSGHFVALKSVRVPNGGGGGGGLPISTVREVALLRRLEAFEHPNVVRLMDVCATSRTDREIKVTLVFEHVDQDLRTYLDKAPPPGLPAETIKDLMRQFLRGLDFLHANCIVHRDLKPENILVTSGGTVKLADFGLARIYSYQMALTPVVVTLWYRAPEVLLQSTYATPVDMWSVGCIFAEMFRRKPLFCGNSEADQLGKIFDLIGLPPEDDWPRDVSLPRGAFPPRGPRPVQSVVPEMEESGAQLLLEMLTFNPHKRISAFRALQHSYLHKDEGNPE
Sequence of CDK4/CycD (P24385 whole entry partner): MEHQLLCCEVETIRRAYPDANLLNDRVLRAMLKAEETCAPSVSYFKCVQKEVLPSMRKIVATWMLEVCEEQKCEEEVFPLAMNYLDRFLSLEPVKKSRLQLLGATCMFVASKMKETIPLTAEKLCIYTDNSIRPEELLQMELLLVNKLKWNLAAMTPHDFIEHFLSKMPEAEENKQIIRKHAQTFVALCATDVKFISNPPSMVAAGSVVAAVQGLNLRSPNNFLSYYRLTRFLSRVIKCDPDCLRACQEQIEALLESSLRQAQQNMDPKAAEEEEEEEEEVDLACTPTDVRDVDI
Sequence of CDK5/p25 (Q00535 whole entry): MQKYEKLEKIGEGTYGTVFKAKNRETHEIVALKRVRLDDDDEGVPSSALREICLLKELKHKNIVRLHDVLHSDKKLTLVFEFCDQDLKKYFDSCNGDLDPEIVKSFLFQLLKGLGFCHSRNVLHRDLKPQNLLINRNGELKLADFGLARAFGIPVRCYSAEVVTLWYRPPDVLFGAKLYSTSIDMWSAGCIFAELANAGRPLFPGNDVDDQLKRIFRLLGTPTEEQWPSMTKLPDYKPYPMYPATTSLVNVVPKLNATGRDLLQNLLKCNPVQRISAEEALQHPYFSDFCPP
Sequence of CDK5/p35 (Q00535 whole entry): as above
Sequence of CDK5/p35 (Q15078 whole entry partner): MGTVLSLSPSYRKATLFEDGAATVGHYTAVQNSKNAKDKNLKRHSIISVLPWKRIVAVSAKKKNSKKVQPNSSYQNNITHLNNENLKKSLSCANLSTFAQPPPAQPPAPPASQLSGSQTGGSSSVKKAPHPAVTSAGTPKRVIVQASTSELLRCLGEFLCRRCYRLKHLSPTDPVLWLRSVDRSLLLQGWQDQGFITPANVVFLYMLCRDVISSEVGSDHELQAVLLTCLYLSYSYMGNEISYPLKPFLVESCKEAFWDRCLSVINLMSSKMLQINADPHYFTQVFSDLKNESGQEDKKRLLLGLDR
Sequence of CDK9/CycT (P50750 whole entry): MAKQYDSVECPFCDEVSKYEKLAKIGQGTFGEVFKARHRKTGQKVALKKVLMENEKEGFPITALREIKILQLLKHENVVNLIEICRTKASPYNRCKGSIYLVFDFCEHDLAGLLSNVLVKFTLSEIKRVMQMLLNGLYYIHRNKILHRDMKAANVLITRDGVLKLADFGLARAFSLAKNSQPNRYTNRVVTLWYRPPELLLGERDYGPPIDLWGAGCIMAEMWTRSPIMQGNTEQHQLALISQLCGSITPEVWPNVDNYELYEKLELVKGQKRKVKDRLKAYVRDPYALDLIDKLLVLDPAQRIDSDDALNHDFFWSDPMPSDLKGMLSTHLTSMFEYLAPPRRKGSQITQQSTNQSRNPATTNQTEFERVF
Sequence of CDK9/CycT (O60563 whole entry partner): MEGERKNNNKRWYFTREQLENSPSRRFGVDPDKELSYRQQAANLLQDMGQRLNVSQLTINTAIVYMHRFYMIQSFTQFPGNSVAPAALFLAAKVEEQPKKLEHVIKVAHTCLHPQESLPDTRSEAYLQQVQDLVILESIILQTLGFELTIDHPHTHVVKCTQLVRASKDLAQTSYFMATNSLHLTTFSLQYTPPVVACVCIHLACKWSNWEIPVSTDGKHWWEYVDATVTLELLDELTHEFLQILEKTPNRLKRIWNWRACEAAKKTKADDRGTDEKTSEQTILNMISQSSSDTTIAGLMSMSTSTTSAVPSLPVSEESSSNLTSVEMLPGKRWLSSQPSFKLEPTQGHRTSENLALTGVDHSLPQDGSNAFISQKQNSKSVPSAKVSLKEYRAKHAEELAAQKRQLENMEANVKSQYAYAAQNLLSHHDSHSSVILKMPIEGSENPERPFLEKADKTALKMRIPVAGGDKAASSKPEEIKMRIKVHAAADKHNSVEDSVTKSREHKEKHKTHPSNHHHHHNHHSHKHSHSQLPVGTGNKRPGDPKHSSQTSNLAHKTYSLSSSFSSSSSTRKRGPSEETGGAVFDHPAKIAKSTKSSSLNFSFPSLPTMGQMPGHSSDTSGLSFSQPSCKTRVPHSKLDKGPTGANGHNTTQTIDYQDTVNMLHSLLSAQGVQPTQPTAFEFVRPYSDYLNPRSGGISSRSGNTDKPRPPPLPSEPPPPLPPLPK

Row | pIC50 (CDK7/CycH/MAT1) | pIC50 (CDK5/p35) | pIC50 (CDK4/CycD) | pIC50 (CDK2/CycA) | pIC50 (CDK9/CycT) | pIC50 (CDK5/p25) | pIC50 (CDK6/CycD3) | pIC50 (CDK2/CycE) | SMILES
1 | < 4.00 | < 4.00 | < 4.00 | < 4.00 | < 4.00 | < 4.00 | < 4.00 | < 4.00 | CN1CCN(c2ccc(Nc3nccc(N4C(c5ccoc5)=NCC45CCCCC5)n3)nc2)CC1 [compound 54, 4-(2-(furan-3-yl)-1,3-diazaspiro[4.5]dec-2-en-1-yl)-N-(5-(4-methylpiperazin-1-yl)pyridin-2-yl)pyrimidin-2-amine]
2 | < 4.00 | < 4.00 | < 4.00 | < 4.00 | < 4.00 | < 4.00 | < 4.00 | < 4.00 | CN1CCN(c2ccc(Nc3nccc(N4C(c5ccsc5)=NCC45CCCCC5)n3)nc2)CC1 [compound 55, N-(5-(4-methylpiperazin-1-yl)pyridin-2-yl)-4-(2-(thiophen-3-yl)-1,3-diazaspiro[4.5]dec-2-en-1-yl)pyrimidin-2-amine]
3 | < 4.00 | < 4.00 | < 4.00 | < 4.00 | < 4.00 | < 4.00 | 4.15 | < 4.00 | CN1CCN(c2ccc(Nc3nccc(N4C(c5ccccc5)=NCC45CCCCC5)n3)nc2)CC1 [compound 53, N-(5-(4-methylpiperazin-1-yl)pyridin-2-yl)-4-(2-phenyl-1,3-diazaspiro[4.5]dec-2-en-1-yl)pyrimidin-2-amine]
4 |  |  | 5.40 | < 4.00 |  |  | 4.48 | < 4.00 | CC[C@H]1CC(=O)NN1c1ccnc(Nc2ccc(N3CCN(C)CC3)cn2)n1 [compound 56, (S)-5-ethyl-1-(2-((5-(4-methylpiperazin-1-yl)pyridin-2-yl)amino)pyrimidin-4-yl)pyrazolidin-3-one]
5 |  |  | 5.82 | 4.45 |  |  | 5.40 | 4.24 | C[C@H]1CNC(=O)N1c1ccnc(Nc2ccc(N3CCN(C)CC3)cn2)n1 [compound 52, (5S)-5-methyl-1-(2-{[5-(4-methylpiperazin-1-yl)pyridin-2-yl]amino}pyrimidin-4-yl)imidazolidin-2-one]

The remaining lines, values behind:

Row | SMILES | pIC50 (CDK7/CycH/MAT1) | pIC50 (CDK5/p35) | pIC50 (CDK4/CycD) | pIC50 (CDK2/CycA) | pIC50 (CDK9/CycT) | pIC50 (CDK5/p25) | pIC50 (CDK6/CycD3) | pIC50 (CDK2/CycE)
6 | CN1CCN(c2ccc(Nc3nccc(N4CCNC4=O)n3)nc2)CC1 [compound 16, 1-(2-{[5-(4-methylpiperazin-1-yl)pyridin-2-yl]amino}pyrimidin-4-yl)imidazolidin-2-one] | 4.53 | 4.14 | 5.09 | < 4.00 | 5.03 | 4.02 | 5.47 | < 4.00
7 | CN1CCN(c2ccc(Nc3nccc(N4C(=O)NCC45CCCCC5)n3)nc2)CC1 [compound 6, 1-(2-{[5-(4-methylpiperazin-1-yl)pyridin-2-yl]amino}pyrimidin-4-yl)-1,3-diazaspiro[4.5]decan-2-one] | 4.02 | < 4.00 | 6.00 | < 4.00 | 5.02 | < 4.00 | 5.30 | < 4.00
8 | CN1CCN(c2ccc(Nc3nccc(N4CCNC(=O)C4)n3)nc2)CC1 [compound 32, 4-(2-{[5-(4-Methylpiperazin-1-yl)pyridin-2-yl]amino}pyrimidin-4-yl)piperazin-2-one] |  |  | 4.84 |  | 4.64 |  | 4.29 | 
9 | CN1CCN(c2ccc(Nc3nccc(N4C(=O)N(C)CC45CCCCC5)n3)nc2)CC1 [compound 8, 3-Methyl-1-(2-{[5-(4-methylpiperazin-1-yl)pyridin-2-yl]amino}pyrimidin-4-yl)-1,3-diazaspiro[4.5]decan-2-one] | < 4.00 | < 4.00 | 5.49 | < 4.00 | < 4.00 | < 4.00 | 4.79 | < 4.00
10 | CC(C)C1CC(=O)NN1c1ccnc(Nc2ccc(N3CCN(C)CC3)cn2)n1 (stereo not shown) [compound 28, 5-Isopropyl-1-(2-{[5-(4-methylpiperazin-1-yl)pyridin-2-yl]amino}pyrimidin-4-yl)pyrazolidin-3-one] |  |  | < 4.00 |  |  |  | < 4.00 | 
11 | CC(C)[C@H]1CNC(=O)N1c1ccnc(Nc2ccc(N3CCN(C)CC3)cn2)n1 [compound 46, (5S)-5-Isopropyl-1-(2-{[5-(4-methylpiperazin-1-yl)pyridin-2-yl]amino}pyrimidin-4-yl)imidazolidin-2-one] |  |  | 6.12 | 5.01 |  |  | 5.48 | 4.64
12 | CN1CCN(c2ccc(Nc3nccc(N4CC(=O)NCC45CCCCC5)n3)nc2)CC1 [compound 20, 1-(2-{[5-(4-Methylpiperazin-1-yl)pyridin-2-yl]amino}pyrimidin-4-yl)-1,4-diazaspiro[5.5]undecan-3-one] | < 4.00 | 4.42 | 6.36 | < 4.00 | 6.12 | 4.41 | 6.00 | < 4.00
13 | C[C@H]1CNC(=O)CN1c1ccnc(Nc2ccc(N3CCN(C)CC3)cn2)n1 [compound 40, (5S)-5-Methyl-4-(2-{[5-(4-methylpiperazin-1-yl)pyridin-2-yl]amino}pyrimidin-4-yl)piperazin-2-one] |  |  | 5.77 | 4.06 |  |  | 5.24 | 4.15
14 | CN1CCN(c2ccc(Nc3nccc(N4C(=O)N(Cc5ccccc5)CC45CCCCC5)n3)nc2)CC1 [compound 10, 3-benzyl-1-(2-{[5-(4-methylpiperazin-1-yl)pyridin-2-yl]amino}pyrimidin-4-yl)-1,3-diazaspiro[4.5]decan-2-one] | < 4.00 | < 4.00 | 5.57 | < 4.00 | < 4.00 | < 4.00 | 4.45 | < 4.00
